# ChEMBL document CHEMBL1145498, “A systematic interaction map of validated kinase inhibitors with Ser/Thr kinases” (Proc Natl Acad Sci U S A, 2007)
# Target: Serine/threonine-protein kinase 26 (Homo sapiens) (UniProt Q9P289)
# Sequence (Q9P289 2-416 limits assumed): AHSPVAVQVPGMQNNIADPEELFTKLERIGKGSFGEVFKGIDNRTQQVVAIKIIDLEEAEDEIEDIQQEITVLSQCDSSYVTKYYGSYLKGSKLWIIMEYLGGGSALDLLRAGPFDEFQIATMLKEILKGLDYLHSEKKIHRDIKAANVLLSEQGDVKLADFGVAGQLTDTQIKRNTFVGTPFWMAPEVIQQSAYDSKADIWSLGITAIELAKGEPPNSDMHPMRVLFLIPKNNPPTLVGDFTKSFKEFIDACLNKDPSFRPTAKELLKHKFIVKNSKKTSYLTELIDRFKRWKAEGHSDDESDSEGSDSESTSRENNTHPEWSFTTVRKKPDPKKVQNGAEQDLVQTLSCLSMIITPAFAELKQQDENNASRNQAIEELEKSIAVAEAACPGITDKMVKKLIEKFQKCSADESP
row,ΔTm [°C],SMILES
1,-0.4,O=C(O)Cc1ccc(O)c([N+](=O)[O-])c1
2,4.8,O=C1C=C2C(=Nc3c2c2c(c4c3=NC3=C4CCC=C3)C=NC=2)CC1
3,-0.4,Cc1nc(Nc2ncc(C(=O)Nc3c(C)cccc3Cl)s2)cc(N2CCN(CCO)CC2)n1

# Target: T1, Lymphokine-activated killer T-cell-originated protein kinase (Homo sapiens) (UniProt Q96KB5)
# T1 sequence (whole entry): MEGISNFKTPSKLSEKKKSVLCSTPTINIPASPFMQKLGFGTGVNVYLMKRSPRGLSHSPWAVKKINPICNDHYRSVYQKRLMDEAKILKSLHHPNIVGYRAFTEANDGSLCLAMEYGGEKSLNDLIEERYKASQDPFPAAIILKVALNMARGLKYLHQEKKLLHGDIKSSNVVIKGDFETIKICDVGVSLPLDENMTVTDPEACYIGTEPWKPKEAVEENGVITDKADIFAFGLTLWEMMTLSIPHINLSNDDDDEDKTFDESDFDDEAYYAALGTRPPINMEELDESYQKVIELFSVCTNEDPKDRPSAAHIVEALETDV
row,SMILES,ΔTm [°C]
1,O=C(O)Cc1ccc(O)c([N+](=O)[O-])c1,0.6
2,O=C1C=C2C(=Nc3c2c2c(c4c3=NC3=C4CCC=C3)C=NC=2)CC1,0.9

# Target: T2, Serine/threonine-protein kinase 17A (Homo sapiens) (UniProt Q9UEE5)
# T2 sequence (whole entry): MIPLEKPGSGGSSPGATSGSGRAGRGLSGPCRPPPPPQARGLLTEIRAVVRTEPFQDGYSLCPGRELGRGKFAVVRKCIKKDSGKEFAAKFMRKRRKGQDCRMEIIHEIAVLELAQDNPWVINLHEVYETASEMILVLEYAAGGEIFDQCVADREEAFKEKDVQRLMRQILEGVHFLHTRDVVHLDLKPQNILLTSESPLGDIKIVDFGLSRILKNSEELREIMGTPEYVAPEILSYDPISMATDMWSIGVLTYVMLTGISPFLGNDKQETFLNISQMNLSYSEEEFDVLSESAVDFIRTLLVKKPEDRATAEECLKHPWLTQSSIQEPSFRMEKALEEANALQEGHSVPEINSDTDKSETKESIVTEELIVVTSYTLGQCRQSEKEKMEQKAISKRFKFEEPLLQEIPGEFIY
row,ΔTm [°C],SMILES
1,-0.5,O=C(O)Cc1ccc(O)c([N+](=O)[O-])c1
2,2.6,O=C1C=C2C(=Nc3c2c2c(c4c3=NC3=C4CCC=C3)C=NC=2)CC1

# Target: Serine/threonine-protein kinase pim-3 (Homo sapiens) (UniProt Q86V86)
row,ΔTm [°C],SMILES
1,0.1,O=C(O)Cc1ccc(O)c([N+](=O)[O-])c1
2,1.7,O=C1C=C2C(=Nc3c2c2c(c4c3=NC3=C4CCC=C3)C=NC=2)CC1
3,-0.2,Cc1nc(Nc2ncc(C(=O)Nc3c(C)cccc3Cl)s2)cc(N2CCN(CCO)CC2)n1

# Target: Ribosomal protein S6 kinase alpha-3 (Homo sapiens) (UniProt P51812)
row,ΔTm [°C],SMILES
1,1.1,O=C(O)Cc1ccc(O)c([N+](=O)[O-])c1
2,5.1,O=C1C=C2C(=Nc3c2c2c(c4c3=NC3=C4CCC=C3)C=NC=2)CC1

# Target: Serine/threonine-protein kinase 26 (Homo sapiens) (UniProt Q9P289)
# Remark: another data set of the same source
row,ΔTm [°C],SMILES
1,1.1,O=C(O)Cc1ccc(O)c([N+](=O)[O-])c1
2,8.5,O=C1C=C2C(=Nc3c2c2c(c4c3=NC3=C4CCC=C3)C=NC=2)CC1

# Target: Calcium/calmodulin-dependent protein kinase type 1D (Homo sapiens) (UniProt Q8IU85)
row,ΔTm [°C],SMILES
1,0,O=C(O)Cc1ccc(O)c([N+](=O)[O-])c1
2,3.6,O=C1C=C2C(=Nc3c2c2c(c4c3=NC3=C4CCC=C3)C=NC=2)CC1
3,0.9,Cc1nc(Nc2ncc(C(=O)Nc3c(C)cccc3Cl)s2)cc(N2CCN(CCO)CC2)n1

# Target: Serine/threonine-protein kinase pim-1 (Homo sapiens) (UniProt P11309)
# Sequence (P11309 whole entry, looked up): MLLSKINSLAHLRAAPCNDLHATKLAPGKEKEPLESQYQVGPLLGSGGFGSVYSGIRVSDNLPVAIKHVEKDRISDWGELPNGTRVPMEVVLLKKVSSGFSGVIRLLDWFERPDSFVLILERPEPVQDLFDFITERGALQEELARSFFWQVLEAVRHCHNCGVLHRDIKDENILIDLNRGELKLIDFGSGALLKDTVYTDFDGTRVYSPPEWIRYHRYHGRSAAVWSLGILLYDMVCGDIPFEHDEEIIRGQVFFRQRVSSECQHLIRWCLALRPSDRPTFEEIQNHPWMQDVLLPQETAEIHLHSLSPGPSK
row,ΔTm [°C],SMILES
1,0.2,O=C(O)Cc1ccc(O)c([N+](=O)[O-])c1
2,7.5,O=C1C=C2C(=Nc3c2c2c(c4c3=NC3=C4CCC=C3)C=NC=2)CC1
3,0.3,Cc1nc(Nc2ncc(C(=O)Nc3c(C)cccc3Cl)s2)cc(N2CCN(CCO)CC2)n1

# Target: Dual specificity mitogen-activated protein kinase kinase 2 (Homo sapiens, UniProt P36507)
# Sequence (P36507 whole entry): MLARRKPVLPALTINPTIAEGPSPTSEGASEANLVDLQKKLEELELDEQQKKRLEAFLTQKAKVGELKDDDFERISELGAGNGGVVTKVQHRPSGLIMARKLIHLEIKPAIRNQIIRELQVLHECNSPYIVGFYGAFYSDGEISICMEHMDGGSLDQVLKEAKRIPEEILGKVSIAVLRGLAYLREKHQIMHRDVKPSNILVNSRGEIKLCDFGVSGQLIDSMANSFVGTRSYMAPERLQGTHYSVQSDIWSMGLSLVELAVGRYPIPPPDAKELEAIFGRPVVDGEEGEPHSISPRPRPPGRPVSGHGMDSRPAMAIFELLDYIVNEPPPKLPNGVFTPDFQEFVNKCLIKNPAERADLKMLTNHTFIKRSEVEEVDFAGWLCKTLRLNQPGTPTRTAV
row,ΔTm [°C],SMILES
1,0.1,O=C(O)Cc1ccc(O)c([N+](=O)[O-])c1
2,3.1,O=C1C=C2C(=Nc3c2c2c(c4c3=NC3=C4CCC=C3)C=NC=2)CC1
3,-0.2,Cc1nc(Nc2ncc(C(=O)Nc3c(C)cccc3Cl)s2)cc(N2CCN(CCO)CC2)n1

# Target: Serine/threonine-protein kinase OSR1 (Homo sapiens) (UniProt O95747)
# Sequence (O95747 2-527 limits assumed): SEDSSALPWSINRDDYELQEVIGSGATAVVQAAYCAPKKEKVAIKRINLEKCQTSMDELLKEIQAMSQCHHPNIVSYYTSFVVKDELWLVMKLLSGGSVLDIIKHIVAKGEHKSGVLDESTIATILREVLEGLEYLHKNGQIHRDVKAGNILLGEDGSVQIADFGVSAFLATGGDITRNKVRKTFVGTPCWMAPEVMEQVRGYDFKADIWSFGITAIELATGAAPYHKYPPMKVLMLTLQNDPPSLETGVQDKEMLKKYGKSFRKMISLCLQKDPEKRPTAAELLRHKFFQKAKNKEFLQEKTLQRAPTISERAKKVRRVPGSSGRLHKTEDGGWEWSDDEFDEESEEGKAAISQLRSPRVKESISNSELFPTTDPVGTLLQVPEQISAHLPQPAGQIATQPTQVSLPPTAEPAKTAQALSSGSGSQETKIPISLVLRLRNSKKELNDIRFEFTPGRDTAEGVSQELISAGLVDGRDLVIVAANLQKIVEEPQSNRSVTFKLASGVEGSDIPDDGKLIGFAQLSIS
row,ΔTm [°C],SMILES
1,0,O=C(O)Cc1ccc(O)c([N+](=O)[O-])c1
2,2.1,O=C1C=C2C(=Nc3c2c2c(c4c3=NC3=C4CCC=C3)C=NC=2)CC1
3,0.4,Cc1nc(Nc2ncc(C(=O)Nc3c(C)cccc3Cl)s2)cc(N2CCN(CCO)CC2)n1

# Target: T3, Serine/threonine-protein kinase VRK1 (Homo sapiens) (UniProt Q99986)
# T3 sequence (whole entry): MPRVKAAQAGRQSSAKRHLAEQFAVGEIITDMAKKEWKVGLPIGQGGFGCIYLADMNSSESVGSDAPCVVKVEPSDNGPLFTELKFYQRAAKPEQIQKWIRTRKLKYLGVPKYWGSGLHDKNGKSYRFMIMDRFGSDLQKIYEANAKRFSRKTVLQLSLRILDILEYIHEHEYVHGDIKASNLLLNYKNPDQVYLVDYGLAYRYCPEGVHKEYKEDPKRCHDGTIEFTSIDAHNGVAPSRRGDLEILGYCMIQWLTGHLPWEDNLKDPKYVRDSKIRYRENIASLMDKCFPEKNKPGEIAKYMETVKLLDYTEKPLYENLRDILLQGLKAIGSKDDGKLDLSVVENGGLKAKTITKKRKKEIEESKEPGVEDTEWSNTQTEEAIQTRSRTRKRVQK
row,ΔTm [°C],SMILES
1,0.4,O=C(O)Cc1ccc(O)c([N+](=O)[O-])c1
2,1.1,O=C1C=C2C(=Nc3c2c2c(c4c3=NC3=C4CCC=C3)C=NC=2)CC1

# Target: Serine/threonine-protein kinase PAK 5 (Homo sapiens) (UniProt Q9P286)
# Sequence (Q9P286 whole entry, looked up): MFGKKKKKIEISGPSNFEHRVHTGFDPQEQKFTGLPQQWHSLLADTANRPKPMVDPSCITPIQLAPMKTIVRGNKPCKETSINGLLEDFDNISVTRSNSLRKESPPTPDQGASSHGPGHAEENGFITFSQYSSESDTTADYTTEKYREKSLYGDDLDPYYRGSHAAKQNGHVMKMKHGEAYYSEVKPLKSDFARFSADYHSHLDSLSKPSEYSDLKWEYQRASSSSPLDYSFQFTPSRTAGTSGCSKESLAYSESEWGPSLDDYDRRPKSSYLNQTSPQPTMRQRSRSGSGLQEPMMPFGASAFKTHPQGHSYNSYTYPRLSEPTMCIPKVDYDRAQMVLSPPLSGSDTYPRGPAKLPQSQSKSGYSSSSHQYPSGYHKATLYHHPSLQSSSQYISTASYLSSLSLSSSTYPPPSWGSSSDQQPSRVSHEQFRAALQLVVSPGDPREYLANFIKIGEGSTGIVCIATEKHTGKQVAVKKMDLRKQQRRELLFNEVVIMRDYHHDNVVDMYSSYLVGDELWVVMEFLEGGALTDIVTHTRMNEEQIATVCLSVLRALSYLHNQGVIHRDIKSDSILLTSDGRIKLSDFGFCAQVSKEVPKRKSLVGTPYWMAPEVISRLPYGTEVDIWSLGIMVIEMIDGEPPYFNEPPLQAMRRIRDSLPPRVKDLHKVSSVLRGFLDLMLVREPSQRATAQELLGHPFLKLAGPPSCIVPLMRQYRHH
row,ΔTm [°C],SMILES
1,0.1,O=C(O)Cc1ccc(O)c([N+](=O)[O-])c1
2,2.7,O=C1C=C2C(=Nc3c2c2c(c4c3=NC3=C4CCC=C3)C=NC=2)CC1
3,-0.6,Cc1nc(Nc2ncc(C(=O)Nc3c(C)cccc3Cl)s2)cc(N2CCN(CCO)CC2)n1

# Target: Calcium/calmodulin-dependent protein kinase type II subunit gamma (Homo sapiens) (UniProt Q13555)
# Sequence (Q13555 whole entry): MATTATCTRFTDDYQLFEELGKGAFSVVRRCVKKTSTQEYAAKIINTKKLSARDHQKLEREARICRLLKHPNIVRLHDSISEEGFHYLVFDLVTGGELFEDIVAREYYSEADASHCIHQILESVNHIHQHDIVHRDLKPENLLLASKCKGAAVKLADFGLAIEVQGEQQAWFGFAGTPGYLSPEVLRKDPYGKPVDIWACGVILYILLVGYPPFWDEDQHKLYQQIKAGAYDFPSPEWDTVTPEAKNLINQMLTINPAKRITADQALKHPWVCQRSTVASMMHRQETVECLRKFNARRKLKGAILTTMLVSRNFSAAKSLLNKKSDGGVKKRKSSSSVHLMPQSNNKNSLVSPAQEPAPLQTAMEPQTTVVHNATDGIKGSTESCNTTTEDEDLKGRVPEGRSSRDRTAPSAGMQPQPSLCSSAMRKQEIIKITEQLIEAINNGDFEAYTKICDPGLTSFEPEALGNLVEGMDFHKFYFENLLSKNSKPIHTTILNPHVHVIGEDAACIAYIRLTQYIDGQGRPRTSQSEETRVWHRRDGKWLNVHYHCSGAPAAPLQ
row,ΔTm [°C],SMILES
1,-0.1,O=C(O)Cc1ccc(O)c([N+](=O)[O-])c1
2,2.4,O=C1C=C2C(=Nc3c2c2c(c4c3=NC3=C4CCC=C3)C=NC=2)CC1
3,-0.3,Cc1nc(Nc2ncc(C(=O)Nc3c(C)cccc3Cl)s2)cc(N2CCN(CCO)CC2)n1

# Target: Dual specificity protein kinase CLK2 (Homo sapiens) (UniProt P49760)
# Sequence (P49760 whole entry, looked up): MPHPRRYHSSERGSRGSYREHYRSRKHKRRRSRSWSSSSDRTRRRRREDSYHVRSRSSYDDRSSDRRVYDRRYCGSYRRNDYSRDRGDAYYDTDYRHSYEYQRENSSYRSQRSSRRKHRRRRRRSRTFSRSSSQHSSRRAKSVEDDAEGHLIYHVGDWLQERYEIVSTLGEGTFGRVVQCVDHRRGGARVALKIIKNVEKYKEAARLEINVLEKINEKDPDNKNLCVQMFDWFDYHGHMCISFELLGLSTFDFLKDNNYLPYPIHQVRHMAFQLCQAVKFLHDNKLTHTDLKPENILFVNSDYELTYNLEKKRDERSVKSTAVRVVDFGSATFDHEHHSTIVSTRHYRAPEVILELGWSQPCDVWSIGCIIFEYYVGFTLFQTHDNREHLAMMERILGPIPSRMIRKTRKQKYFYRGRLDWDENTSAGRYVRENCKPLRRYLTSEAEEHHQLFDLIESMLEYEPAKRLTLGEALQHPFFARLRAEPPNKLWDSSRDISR
row,ΔTm [°C],SMILES
1,0.5,O=C(O)Cc1ccc(O)c([N+](=O)[O-])c1
2,4.2,O=C1C=C2C(=Nc3c2c2c(c4c3=NC3=C4CCC=C3)C=NC=2)CC1
3,0.1,Cc1nc(Nc2ncc(C(=O)Nc3c(C)cccc3Cl)s2)cc(N2CCN(CCO)CC2)n1

# Target: Calcium/calmodulin-dependent protein kinase type II subunit delta (Homo sapiens) (UniProt Q13557)
# Sequence (Q13557 whole entry): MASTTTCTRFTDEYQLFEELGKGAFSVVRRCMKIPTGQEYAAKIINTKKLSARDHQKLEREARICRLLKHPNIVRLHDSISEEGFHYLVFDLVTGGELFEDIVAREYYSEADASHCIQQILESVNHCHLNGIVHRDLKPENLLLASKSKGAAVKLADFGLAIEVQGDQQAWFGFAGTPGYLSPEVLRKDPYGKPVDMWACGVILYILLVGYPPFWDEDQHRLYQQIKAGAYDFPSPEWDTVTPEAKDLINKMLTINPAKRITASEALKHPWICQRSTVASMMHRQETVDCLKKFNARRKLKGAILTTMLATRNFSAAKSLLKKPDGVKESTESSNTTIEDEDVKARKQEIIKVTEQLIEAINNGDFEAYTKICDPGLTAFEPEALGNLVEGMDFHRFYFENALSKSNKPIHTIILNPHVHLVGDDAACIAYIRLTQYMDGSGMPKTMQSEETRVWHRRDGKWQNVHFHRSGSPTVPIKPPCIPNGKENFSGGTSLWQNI
row,ΔTm [°C],SMILES
1,0.9,O=C(O)Cc1ccc(O)c([N+](=O)[O-])c1
2,2,O=C1C=C2C(=Nc3c2c2c(c4c3=NC3=C4CCC=C3)C=NC=2)CC1
3,0,Cc1nc(Nc2ncc(C(=O)Nc3c(C)cccc3Cl)s2)cc(N2CCN(CCO)CC2)n1

# Target: Cyclin-dependent kinase 2 (Homo sapiens, UniProt P24941)
row,ΔTm [°C],SMILES
1,1.1,O=C(O)Cc1ccc(O)c([N+](=O)[O-])c1
2,4,O=C1C=C2C(=Nc3c2c2c(c4c3=NC3=C4CCC=C3)C=NC=2)CC1
3,0.2,Cc1nc(Nc2ncc(C(=O)Nc3c(C)cccc3Cl)s2)cc(N2CCN(CCO)CC2)n1

# Target: Death-associated protein kinase 3 (Homo sapiens) (UniProt O43293)
# Sequence (O43293 whole entry, looked up): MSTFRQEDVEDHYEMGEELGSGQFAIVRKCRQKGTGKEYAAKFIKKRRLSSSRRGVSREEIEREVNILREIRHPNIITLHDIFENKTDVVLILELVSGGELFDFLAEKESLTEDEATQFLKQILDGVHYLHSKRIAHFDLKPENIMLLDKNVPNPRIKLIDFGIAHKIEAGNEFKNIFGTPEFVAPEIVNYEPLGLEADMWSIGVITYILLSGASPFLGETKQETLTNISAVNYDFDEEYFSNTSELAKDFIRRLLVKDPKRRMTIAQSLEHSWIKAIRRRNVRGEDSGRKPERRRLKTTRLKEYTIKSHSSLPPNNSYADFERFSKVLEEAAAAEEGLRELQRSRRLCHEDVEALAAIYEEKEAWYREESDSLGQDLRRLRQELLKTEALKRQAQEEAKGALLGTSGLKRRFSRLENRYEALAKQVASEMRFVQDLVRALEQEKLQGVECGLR
row,SMILES,ΔTm [°C]
1,O=C(O)Cc1ccc(O)c([N+](=O)[O-])c1,0.5
2,O=C1C=C2C(=Nc3c2c2c(c4c3=NC3=C4CCC=C3)C=NC=2)CC1,3.8
3,Cc1nc(Nc2ncc(C(=O)Nc3c(C)cccc3Cl)s2)cc(N2CCN(CCO)CC2)n1,0

# Target: T4, Myotonin-protein kinase (Homo sapiens) (UniProt Q09013)
# T4 sequence (whole entry): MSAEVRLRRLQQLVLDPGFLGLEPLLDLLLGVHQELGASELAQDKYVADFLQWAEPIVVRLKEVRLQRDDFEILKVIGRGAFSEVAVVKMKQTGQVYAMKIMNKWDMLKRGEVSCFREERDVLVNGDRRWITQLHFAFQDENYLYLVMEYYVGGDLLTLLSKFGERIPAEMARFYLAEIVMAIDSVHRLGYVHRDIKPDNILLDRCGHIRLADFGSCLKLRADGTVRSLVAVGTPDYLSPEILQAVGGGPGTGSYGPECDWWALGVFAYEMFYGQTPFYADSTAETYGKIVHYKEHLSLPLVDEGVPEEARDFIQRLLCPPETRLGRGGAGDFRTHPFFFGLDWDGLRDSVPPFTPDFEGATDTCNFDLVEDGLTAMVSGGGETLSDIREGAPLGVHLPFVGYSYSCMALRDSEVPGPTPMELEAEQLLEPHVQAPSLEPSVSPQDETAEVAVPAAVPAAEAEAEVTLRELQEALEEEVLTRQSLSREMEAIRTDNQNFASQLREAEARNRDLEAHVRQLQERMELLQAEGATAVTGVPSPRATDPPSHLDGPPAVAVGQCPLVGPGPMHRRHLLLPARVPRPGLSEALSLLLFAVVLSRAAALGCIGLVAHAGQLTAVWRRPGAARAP
row,ΔTm [°C],SMILES
1,1.6,O=C(O)Cc1ccc(O)c([N+](=O)[O-])c1
2,5.1,O=C1C=C2C(=Nc3c2c2c(c4c3=NC3=C4CCC=C3)C=NC=2)CC1
3,4.6,Cc1nc(Nc2ncc(C(=O)Nc3c(C)cccc3Cl)s2)cc(N2CCN(CCO)CC2)n1

# Target: Serine/threonine-protein kinase pim-2 (Homo sapiens, UniProt Q9P1W9)
# Sequence (Q9P1W9 whole entry, looked up): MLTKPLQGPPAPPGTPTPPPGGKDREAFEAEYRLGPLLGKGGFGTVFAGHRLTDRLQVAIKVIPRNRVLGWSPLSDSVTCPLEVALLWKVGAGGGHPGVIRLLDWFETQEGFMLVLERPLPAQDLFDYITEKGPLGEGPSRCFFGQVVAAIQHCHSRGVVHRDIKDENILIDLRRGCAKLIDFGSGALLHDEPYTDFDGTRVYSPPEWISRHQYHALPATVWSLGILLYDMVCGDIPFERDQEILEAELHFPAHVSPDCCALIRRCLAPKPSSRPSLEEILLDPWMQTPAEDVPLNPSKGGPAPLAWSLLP
row,ΔTm [°C],SMILES
1,-0.1,O=C(O)Cc1ccc(O)c([N+](=O)[O-])c1
2,5.2,O=C1C=C2C(=Nc3c2c2c(c4c3=NC3=C4CCC=C3)C=NC=2)CC1
3,0,Cc1nc(Nc2ncc(C(=O)Nc3c(C)cccc3Cl)s2)cc(N2CCN(CCO)CC2)n1

# Target: Mitogen-activated protein kinase 11 (Homo sapiens, UniProt Q15759)
row,ΔTm [°C],SMILES
1,0.8,O=C(O)Cc1ccc(O)c([N+](=O)[O-])c1
2,1.2,O=C1C=C2C(=Nc3c2c2c(c4c3=NC3=C4CCC=C3)C=NC=2)CC1
3,0.4,Cc1nc(Nc2ncc(C(=O)Nc3c(C)cccc3Cl)s2)cc(N2CCN(CCO)CC2)n1
